From publication PMC3412276 (Molecular Microbiology, 2012)

Target: T1, TbPMI (phosphomannose isomerase) (Trypanosoma brucei, UniProt Q381V7)
T1 construct: gene Tb11.01.6410
T1 sequence (Q381V7 1-409): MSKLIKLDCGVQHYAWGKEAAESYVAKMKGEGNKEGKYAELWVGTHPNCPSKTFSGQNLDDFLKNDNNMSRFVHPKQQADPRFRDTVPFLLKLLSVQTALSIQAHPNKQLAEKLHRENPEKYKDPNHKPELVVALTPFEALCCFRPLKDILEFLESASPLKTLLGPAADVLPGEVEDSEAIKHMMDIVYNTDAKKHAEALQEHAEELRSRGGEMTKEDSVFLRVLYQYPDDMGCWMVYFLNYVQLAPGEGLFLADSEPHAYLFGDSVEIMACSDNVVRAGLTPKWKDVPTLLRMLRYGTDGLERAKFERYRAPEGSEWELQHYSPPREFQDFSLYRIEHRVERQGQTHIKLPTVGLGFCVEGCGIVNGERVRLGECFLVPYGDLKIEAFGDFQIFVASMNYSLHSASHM
Test: HPAEC with pulsed amperiometric detection
Format: biochemical
Details: 0.25 mM sugar-6P, 2 mM bis-tris propane pH 7.3, 2.5 mM MgCl2, 37°C, 15 min

| Structure (SMILES) | HPAEC with pulsed amperiometric detection (converted to Man-6P) | HPAEC with pulsed amperiometric detection (converted to Fru-6P) |
| --- | --- | --- |
| O=P(O)(O)OC[C@H]1OC(O)(CO)[C@@H](O)[C@@H]1O (some centres unmarked) [Fru-6P] | to be able to convert Man-6P to Fru-6P and Fru-6P to Man-6P, as expected | – |
| O=P(O)(O)OC[C@H]1OC(O)[C@@H](O)[C@@H](O)[C@@H]1O (some centres unmarked) [Man-6P] | – | to be able to convert Man-6P to Fru-6P and Fru-6P to Man-6P, as expected |
